Experimental data: article PMC8834192 (2022)

What was measured:
[1] = system: Z0 (DNA, aptamer) CTACCAGCTTTGAGGCTCGATCCAGCTTATTCAATTATACCAGCTTATTCAATTATACCAGC; assay: UV-Vis absorbance at 260 nm of released strand; conditions: room temperature; partially complementary strand Z1 displaced from bead-bound Z0Z1
[2] = system: Z0 (DNA, aptamer) CTACCAGCTTTGAGGCTCGATCCAGCTTATTCAATTATACCAGCTTATTCAATTATACCAGC; assay: circular dichroism; conditions: Z0Z1 partial duplex; Z1 (S3) displaced; buffer not stated

Which results are given for `C[C@H]1CCCC(=O)CCC/C=C/c2cc(O)cc(O)c2C(=O)O1`?
binding [1]: yes; binding [2]: yes
